These results are taken from patent US20260356804A1, “SODIUM CHANNEL BLOCKING COMPOUNDS, DERIVATIVES THEREOF, AND METHODS OF THEIR USE” (LATIGO BIOTHERAPEUTICS, INC., priority 2022, published 2026).

Each structure is given as a SMILES string. Read-outs that look alike come from different tables or passages of the source.

The IC50 is the concentration that inhibits the measured activity by half.

Test [1] deals with T1, human Nav1.8/β1 (Homo sapiens, UniProt Q9Y5Y9).
T1 construct: host or cells: HEK293
Put plainly: Compound Profiling Human NaV1.8/β1 Cell Line—Sophion QPatch II Assay (automated patch clamp, stably transfected HEK293 cells). The format is cell-based. How it is done:
Compounds were tested on recombinant human Nav1.8/β1 stably transfected HEK293 (Eurofins, CYL3025, St. Charles, MO) cells using the QPatch II system (Sophion Bioscience A/S, Ballerup—Denmark), an automated patch clamp device. Cells were cultured at 37° C./5% CO2 in DMEM/F-12 supplemented with 10% fetal bovine serum, 1× Non-Essential Amino Acids, and selection antibiotics (0.625 μg/mL Puromycin, 400 μg/mL Geneticin, and 100 μg/mL Hygromycin). One or two days prior to recording, cells were moved to a lower temperature 30° C./5% CO2 incubator to increase surface expression of the channels. On the day of the recordings, cells in culture dishes were washed twice with Ca^2+—Mg^2+ free DPBS and treated with Detachin (Genlantis, San Diego) for 3 minutes and then resuspended in Serum Free Medium (EX-CELL® ACF CHO Medium for Cell Culture (Sigma-Aldrich) supplemented with 0.04 mg/mL soybean trypsin Inhibitor and 25 mM HEPES (all components supplied by Sigma-Aldrich, St. Louis, MO) and allowed to recover for a minimum of 20 minutes in the onboard QStirrer. All experiments were performed at ambient temperature. Intracellular solution contained (mM): CsCl, 50; CsF, 90; MgCl2, 2; EGTA, 5; HEPES, 10; pH adjusted to 7.2 with CsOH. Extracellular solution contained (mM): NaCl, 137; KCl, 4; CaCl2), 3.8; MgCl2, 1; HEPES, 10; Glucose, 10; pH adjusted to 7.4 with NaOH. [LEFT OUT].
Compounds were tested in an interleaved manner across two cohorts of wells to develop an aggregate 8-point concentration response curve. Final concentrations include 0.1% DMSO and 0.03% pluronic Acid. In general, the concentration range spans a range from 0.01-300 nM. Compounds were diluted 1:10 with extracellular solution within their respective cohort. DMSO (0.1% by volume) served as a vehicle control to ascertain assay performance.
(§1) Whole cell patch clamp recordings were conducted according to Sophion standard procedure for QPatch II®. Cells were held at a holding potential of −120 mV. A depolarizing step to 10 mV for 30 ms was applied to elicit inward Na^+ currents. Inter-sweep interval was 15 sec. Following establishment of the whole-cell configuration in extracellular solution, cells were washed twice in extracellular solution containing 0.1% DMSO and 0.03% pluronic acid to stabilize the baseline current. Compounds were then applied by the QPatch II system into each well in an ascending manner within cohort and the current was recorded for five minutes for each concentration. Percent of current remaining was determined by taking the average of the last 5 sweeps within each concentration and normalizing to the latest pre-compound saline period. The potency (IC50) values of the compounds were only assessed against resting state block. Wells whose initial sodium current magnitude were below 2 nA or whole cell resistance fell below 100 MΩ were excluded from analysis.
as §1, with “MO” for “MΩ”, “analysis. […]” for “analysis.”
(In general: Patch clamp records ionic current or voltage across a cell membrane.)

In test [2] the target is T2, human Nav1.8/b3 (Homo sapiens, UniProt Q9Y5Y9).
T2 construct: expressed in transfected cells; host or cells: CHO
Description: Compound Profiling Human NaV1.8/β3 Cell Line—SyncroPatch384PE Assay (automated patch clamp, stably transfected CHO cells). The note with it: Nav1.8/b3 CHO cells. The format is cell-based.

[3] abbreviates: P1, resting state block, Nav1.8/β1 HEK293 cells, holding potential −120 mV, first set of compounds, read-out: P1 (IC50, resting state block).
Where [4] appears, read: P1 (IC50, resting state block), P1 measurement, resting state block, holding potential −120 mV, third set of compounds.
Setting [5] is: P2 (IC50, inactivated state block), P2 measurement, inactivated state block, inactivation step −35 mV 10 sec, third set of compounds.
The mark [6] stands for this setting: P1 (IC50, resting state block), P1 measurement, resting state block, holding potential −120 mV, first set of compounds.
The mark [7] stands for this setting: P2 (IC50, inactivated state block), P2 measurement, inactivated state block, inactivation step −35 mV 10 sec, first set of compounds.

T2 sequence (Q9Y5Y9 whole entry): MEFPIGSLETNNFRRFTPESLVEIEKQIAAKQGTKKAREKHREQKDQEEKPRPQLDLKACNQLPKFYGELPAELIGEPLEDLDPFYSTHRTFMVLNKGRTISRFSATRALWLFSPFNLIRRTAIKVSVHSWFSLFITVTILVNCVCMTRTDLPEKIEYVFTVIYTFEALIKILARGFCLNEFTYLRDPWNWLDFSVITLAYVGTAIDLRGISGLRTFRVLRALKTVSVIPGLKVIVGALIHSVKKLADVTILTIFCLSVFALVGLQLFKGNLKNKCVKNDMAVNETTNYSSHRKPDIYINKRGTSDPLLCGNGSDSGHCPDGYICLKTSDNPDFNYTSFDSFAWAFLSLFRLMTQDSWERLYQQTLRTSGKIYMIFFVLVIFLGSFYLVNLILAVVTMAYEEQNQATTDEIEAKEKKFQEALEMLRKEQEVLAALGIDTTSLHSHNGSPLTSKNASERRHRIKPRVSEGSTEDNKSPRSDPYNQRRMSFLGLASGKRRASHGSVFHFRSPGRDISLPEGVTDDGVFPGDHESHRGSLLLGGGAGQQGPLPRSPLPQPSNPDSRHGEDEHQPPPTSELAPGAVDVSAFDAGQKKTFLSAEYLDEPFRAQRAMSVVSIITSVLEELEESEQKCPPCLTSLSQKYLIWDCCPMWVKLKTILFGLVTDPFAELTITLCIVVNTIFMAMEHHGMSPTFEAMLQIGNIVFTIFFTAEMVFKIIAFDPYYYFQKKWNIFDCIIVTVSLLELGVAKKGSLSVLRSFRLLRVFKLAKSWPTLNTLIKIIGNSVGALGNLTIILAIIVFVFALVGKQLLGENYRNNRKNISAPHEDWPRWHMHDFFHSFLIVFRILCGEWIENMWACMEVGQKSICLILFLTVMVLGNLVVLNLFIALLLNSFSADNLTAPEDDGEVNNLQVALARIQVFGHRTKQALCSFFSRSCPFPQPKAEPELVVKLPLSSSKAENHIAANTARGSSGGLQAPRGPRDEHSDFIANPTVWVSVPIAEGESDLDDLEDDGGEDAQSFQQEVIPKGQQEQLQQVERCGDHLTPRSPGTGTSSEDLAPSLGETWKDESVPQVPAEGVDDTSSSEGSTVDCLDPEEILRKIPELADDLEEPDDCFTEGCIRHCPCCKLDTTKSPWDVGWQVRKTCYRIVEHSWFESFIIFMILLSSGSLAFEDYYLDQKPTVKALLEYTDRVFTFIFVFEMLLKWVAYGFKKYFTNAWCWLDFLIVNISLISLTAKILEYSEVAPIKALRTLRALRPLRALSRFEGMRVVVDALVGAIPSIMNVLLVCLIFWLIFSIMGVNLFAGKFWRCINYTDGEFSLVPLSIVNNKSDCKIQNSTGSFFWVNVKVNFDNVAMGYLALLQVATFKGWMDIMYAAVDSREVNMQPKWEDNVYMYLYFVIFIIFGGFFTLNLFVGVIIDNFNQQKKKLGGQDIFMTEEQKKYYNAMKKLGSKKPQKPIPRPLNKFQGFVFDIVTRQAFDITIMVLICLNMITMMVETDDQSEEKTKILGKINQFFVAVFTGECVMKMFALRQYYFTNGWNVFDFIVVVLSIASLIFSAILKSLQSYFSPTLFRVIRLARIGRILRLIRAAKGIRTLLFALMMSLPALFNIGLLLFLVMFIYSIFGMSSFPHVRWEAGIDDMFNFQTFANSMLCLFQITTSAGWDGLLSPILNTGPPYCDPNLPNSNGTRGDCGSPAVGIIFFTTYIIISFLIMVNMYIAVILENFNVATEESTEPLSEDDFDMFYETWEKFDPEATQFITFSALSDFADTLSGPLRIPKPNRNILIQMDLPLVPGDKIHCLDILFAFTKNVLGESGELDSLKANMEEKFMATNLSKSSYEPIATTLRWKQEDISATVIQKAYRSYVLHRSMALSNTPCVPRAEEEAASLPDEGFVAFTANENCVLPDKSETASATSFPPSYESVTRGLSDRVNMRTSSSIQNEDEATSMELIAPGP
T2 sequence (Q9NY72 23-215 partner): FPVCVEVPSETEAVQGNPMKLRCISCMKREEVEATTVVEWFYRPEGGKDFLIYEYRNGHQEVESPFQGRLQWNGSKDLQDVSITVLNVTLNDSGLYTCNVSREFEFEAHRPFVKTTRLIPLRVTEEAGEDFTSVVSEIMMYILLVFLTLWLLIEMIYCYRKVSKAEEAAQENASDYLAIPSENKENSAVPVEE
T1 sequence (Q9Y5Y9 whole entry): as the sequence (Q9Y5Y9 whole entry) above
T1 sequence (Q07699 19-218 partner): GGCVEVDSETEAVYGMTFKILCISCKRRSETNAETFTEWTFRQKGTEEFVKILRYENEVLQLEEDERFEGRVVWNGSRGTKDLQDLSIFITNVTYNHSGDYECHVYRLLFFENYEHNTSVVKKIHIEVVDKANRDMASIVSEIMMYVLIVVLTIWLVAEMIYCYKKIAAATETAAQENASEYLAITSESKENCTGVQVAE

Consider `CNCCS(=N)(=O)c1cccc(NC(=O)c2c(Oc3ccc(F)nc3C)ncc(C(F)(F)F)c2C)c1` (stereo not shown) [Example 78C], for which, in test [1], the 50% inhibitory concentration (IC50) lay within 0.005 to 0.05 µM.

For `Cc1cc(F)ncc1Oc1cc(C(F)(F)F)c(Cl)cc1C(=O)Nc1ccnc([S@](C)(=N)=O)c1` [Example 20A], in test [1] (setting [3]), the IC50 lay in the range of 0.1 to 0.2 µM.

For `Cc1cc(F)ccc1Oc1ncc(C(F)(F)F)c(C)c1C(=O)Nc1cccc(S(=N)(=O)CCCO)c1` (stereo not shown) [Example 54C], in test [1], the IC50 was in the range of 0.05 to 0.1 µM.

On to `Cc1cc(F)ccc1Oc1ncc(C(F)(F)F)c(C)c1C(=O)Nc1cccc(S(=N)(=O)CCCN(C)C)c1` (stereo not shown) [Example 55C], for which, in test [1], the IC50 lay within 0.005 to 0.05 µM.

In test [1], `Cc1nc(F)ccc1Oc1ncc(C(F)(F)F)c(C)c1C(=O)Nc1cccc([S@@](=N)(=O)CCCO)c1` [Example 68C] had an IC50 of 0.1 to 0.2 µM.

Take `Cc1nc(F)ccc1Oc1ncc(C(F)(F)F)c(C)c1C(=O)N(C)c1cccc([S@@](C)(=N)=O)c1` [Example 47C, (S)-2-((6-fluoro-2-methylpyridin-3-yl)oxy)-N,4-dimethyl-N-(3-(S-methylsulfonimidoyl)phenyl)-5-(trifluoromethyl)nicotinamide]: the IC50 in test [1] is greater than 0.2 µM.

As for `COc1cc(C#N)ccc1Oc1ncc(C(F)(F)F)c(C)c1C(=O)Nc1cccc(S(=N)(=O)CCCN(C)C)c1` (stereo not shown) [Example 59C], the IC50 in test [1] was 0.005 to 0.05 µM.

In turn, `COc1cc(C#N)ccc1Oc1ncc(C(F)(F)F)c(C)c1C(=O)Nc1cccc([S@@](=N)(=O)CCCO)c1` [Example 58C] returned an IC50 in test [1] of 0.005 to 0.05 µM.

In turn, `CNCCCS(=N)(=O)c1cccc(NC(=O)c2c(Oc3ccc(F)cc3C)ncc(C(F)(F)F)c2C)c1` (stereo not shown) [Example 56C] had an IC50 in test [1] of 0.005 to 0.05 µM.

The compound `Cc1nc(F)ccc1Oc1ncc(C(F)(F)F)c(C)c1C(=O)Nc1cccc([S@@]2(=O)=NCCC2)c1` [Example 80C] had an IC50 in test [1] of 0.1 to 0.2 µM.

`CNC(C)(C)CCS(=N)(=O)c1cccc(NC(=O)c2c(Oc3ccc(F)nc3C)ncc(C(F)(F)F)c2C)c1` (stereo not shown) [Example 50C] registered an IC50 in test [1] of 0.005 to 0.05 µM.

With `Cc1nc(F)ccc1Oc1ncc(C(F)(F)F)c(C)c1C(=O)Nc1cncc([S@](C)(=N)=O)c1` [Example 61C], the IC50 in test [1] fell in the range of 0.1 to 0.2 µM.

Regarding `COc1cc(C#N)ccc1Oc1cc(C(F)(F)F)c(Cl)cc1C(=O)Nc1ccnc([S@@](C)(=N)=O)c1` [Example 15A], the IC50 in test [1] (setting [3]) lay within 0.005 to 0.05 µM.

As to `COc1cc(Br)ccc1Oc1cc(C(F)(F)F)c(Cl)cc1C(=O)Nc1ccnc([S@@](C)(=N)=O)c1` [Example 16A], in test [1] (setting [3]), the IC50 was less than 0.005 µM.

In turn, `COc1cc(C#N)ccc1Oc1cc(C(F)(F)F)c(Cl)cc1C(=O)Nc1cccc([S@@](C)(=N)=O)c1` [Example 25A] registered an IC50 in test [1] greater than 0.2 µM.

`Cc1c(C(F)(F)F)cnc(Oc2ccc(F)nc2CO)c1C(=O)Nc1cccc([S@](C)(=N)=O)c1` [Example 89C] had an IC50 in test [1] greater than 0.2 µM.

`Cc1nc(F)ccc1Oc1ncc(C(F)(F)F)c(C)c1C(=O)N[C@H]1C[C@H](C(N)=O)C1` [Example 84C]: in test [1], the IC50 was greater than 0.2 µM.

For the compound `Cc1nc(F)ccc1Oc1cc(C(F)(F)F)c(Cl)cc1C(=O)Nc1ccnc(S(C)(=O)=O)c1` [Example 17A], the IC50 in test [1] is 0.005 to 0.05 µM.

Regarding `CNCC[S@](=N)(=O)c1cccc(NC(=O)c2c(Oc3ccc(F)nc3C)ncc(C(F)(F)F)c2C)c1` [Example 65C], in test [1], the IC50 fell in the range of 0.005 to 0.05 µM.

For the compound `Cc1cc(F)ncc1Oc1cc(C(F)(F)F)c(Cl)cc1C(=O)Nc1ccc(F)c([S@](C)(=N)=O)c1` [Example 24A], the IC50 in test [1] is 0.1 to 0.2 µM.

Turning to `Cc1nc(F)ccc1Oc1ncc(C2CC2)c(C)c1C(=O)Nc1cccc([S@](C)(=N)=O)c1` [Example 12C, (R)-5-cyclopropyl-2-((6-fluoro-2-methylpyridin-3-yl)oxy)-4-methyl-N-(3-(S-methylsulfonimidoyl)phenyl)nicotinamide], the IC50 in test [2] (setting [4]) and in test [2] (setting [5]) was 0.05 to 0.1 µM each time.

As for `Cc1nc(F)ccc1Oc1cc(C2CC2)c(C(F)(F)F)cc1C(=O)Nc1ccnc([S@@](C)(=N)=O)c1` [Example 57A], the IC50 in test [2] (setting [6]) was less than 0.005 µM; in test [2] (setting [7]) it was 0.005 to 0.05 µM.

For `Cc1nc(F)ccc1Oc1nnc(C(F)(F)F)c(C)c1C(=O)Nc1cccc(S(N)(=O)=O)c1` [Example 13C, 3-((6-fluoro-2-methylpyridin-3-yl)oxy)-5-methyl-N-(3-sulfamoylphenyl)-6-(trifluoromethyl)pyridazine-4-carboxamide], the IC50 in test [2] (setting [4]) and in test [2] (setting [5]) was less than 0.005 µM throughout.

Regarding `COc1cc(C#N)ccc1Oc1ncc(-c2ccc(C)cn2)c(C)c1C(=O)Nc1cccc([S@](C)(=N)=O)c1` [Example 22C, (R)-6-(4-cyano-2-methoxyphenoxy)-4,5-dimethyl-N-(3-(S-methylsulfonimidoyl)phenyl)-[2,3-bipyridine]-5-carboxamide], the IC50 fell in the range of 0.05 to 0.1 µM in test [2] (P1 measurement, resting state block, holding potential −120 mV, third set of compounds, read-out: P1 (IC50, resting state block)) and 0.05 to 0.1 µM in test [2] (P2 measurement, inactivated state block, inactivation step −35 mV 10 sec, third set of compounds, read-out: P2 (IC50, inactivated state block)).

Turning to `Cc1nc(F)ccc1Oc1cc(C(F)(F)F)c(Cl)cc1C(=O)Nc1ccc(C(N)=O)nc1` [Example 64A], the IC50 in test [2] (setting [6]) and in test [2] (setting [7]) was 0.005 to 0.05 µM each time.

For the compound `COc1cc(C#N)ccc1Oc1ncc(C(F)(F)F)c(C)c1C(=O)Nc1cccc([S@](C)(=N)=O)c1` [Example 5C, (R)-2-(4-cyano-2-methoxyphenoxy)-4-methyl-N-(3-(S-methylsulfonimidoyl)phenyl)-5-(trifluoromethyl)nicotinamide], the IC50 in test [2] (setting [4]) and in test [2] (setting [5]) was less than 0.005 µM each time.

Turning to `Cc1nc(F)ccc1Oc1cc(C(F)(F)F)c(Cl)c(F)c1C(=O)Nc1ccc(C(N)=O)cc1` [Example 37A], the IC50 in test [2] (setting [6]) and in test [2] (setting [7]) was less than 0.005 µM each time.

In the case of `Cc1nc(F)ccc1Oc1ncc(C(F)(F)F)c(C)c1C(=O)Nc1cccc([S@@](C)(=O)=NCCN)c1` [Example 43C, (R)—N-(3-(N-(2-aminoethyl)-S-methylsulfonimidoyl)phenyl)-2-((6-fluoro-2-methylpyridin-3-yl)oxy)-4-methyl-5-(trifluoromethyl)nicotinamide], the IC50 in test [2] (setting [4]) and in test [2] (setting [5]) was less than 0.005 µM each time.

As to `Cc1nc(F)ccc1Oc1cc(C(F)(F)F)c(Cl)cc1C(=O)Nc1cccc([S@@](C)(=O)=NC(=O)[C@@H](C)N)c1` [Example 5B, N-(3-((R)—N-(D-alanyl)-S-methylsulfonimidoyl)phenyl)-5-chloro-2-((6-fluoro-2-methylpyridin-3-yl)oxy)-4-(trifluoromethyl)benzamide], the IC50 in test [2] (P1 (IC50, resting state block), P1 measurement, resting state block, holding potential −120 mV, second set of compounds) was less than 0.005 µM; in test [2] (P2 (IC50, inactivated state block), P2 measurement, inactivated state block, inactivation step −35 mV 10 sec, second set of compounds) it was less than 0.005 µM.

For the compound `Cc1nc(F)ccc1Oc1cc(C(F)(F)F)c(Cl)cc1C(=O)Nc1ccc(F)c([S+](C)[O-])c1` (stereo not shown) [Example 69A], the IC50 in test [2] (setting [6]) and in test [2] (setting [7]) was less than 0.005 µM throughout.
